Values of other authors, collected in US9289396B2, “Collagen-based implants for sustained delivery of drugs” (Euclid Systems Corporation, priority 2010, dated 2016).

Conditions: not given

| SMILES | Approx. Solubility in water |
| --- | --- |
| C[C@H]1C[C@H]2[C@@H]3CCC4=CC(=O)C=C[C@]4(C)[C@@]3(F)[C@@H](O)C[C@]2(C)[C@@]1(O)C(=O)CO [betamethasone] | 0.5 µg/mL |
| CCNC(=O)CCC/C=C\C[C@@H]1[C@@H](/C=C/[C@@H](O)CCc2ccccc2)[C@H](O)C[C@@H]1O [bimatoprost] | 20 µg/mL |
| CN(CCCCCCCCCCN(C)C(=O)Oc1cccc([N+](C)(C)C)c1)C(=O)Oc1cccc([N+](C)(C)C)c1 [demecarium] | 0.1 µg/mL |
| CNCC(O)c1ccc(OC(=O)C(C)(C)C)c(OC(=O)C(C)(C)C)c1 (stereo not shown) [dipivefrin] | 58 µg/mL |
| CN1CCC(=C2c3ccccc3CC(=O)c3sccc32)CC1 [ketotifen] | 8 µg/mL |
| CCOC(=O)O[C@]1(C(=O)OCCl)CC[C@H]2[C@@H]3CCC4=CC(=O)C=C[C@]4(C)[C@H]3[C@@H](O)C[C@@]21C [loteprednol etabonate] | 7 µg/mL |
| NC(=O)Cc1cccc(C(=O)c2ccccc2)c1N [nepafenac] | 20 µg/mL |
| CC(C(=O)O)c1ccc(C(=O)c2cccs2)cc1 (stereo not shown) [suprofen] | 40 µg/mL |
| CC(C)OC(=O)CCC/C=C\C[C@@H]1[C@@H](/C=C/[C@@H](O)COc2cccc(C(F)(F)F)c2)[C@H](O)C[C@@H]1O [travoprost] | 8 µg/mL |

Conditions: in phosphate buffer

| SMILES | aqueous solubility |
| --- | --- |
| CC(C)OC(=O)CCC/C=C\C[C@@H]1[C@@H](CC[C@@H](O)CCc2ccccc2)[C@H](O)C[C@@H]1O [latanoprost, 13,14-dihydro-17-phenyl-18,19,20-trinor-prostaglandin F2a-1-isopropyl ester] | about 50 μg/mL |
